Experimental data: US8969386B2, “Modulators of CFTR” (Vertex Pharmaceuticals Incorporated, priority 2007, dated 2015)

Target: T1, ΔF508-CFTR (Homo sapiens, UniProt P13569, DEL508-508)
T1 construct: expressed in transfected cells
Assay: ΔF508-CFTR correction, membrane potential optical (FRET/VIPR) assay
Format: cell-based
Details: NIH3T3 mouse fibroblasts stably expressing ΔF508-CFTR; for Emax: read-out: % Efficacy
Source text: Assays for Detecting and Measuring ΔF508-CFTR Correction Properties of Compounds
Membrane potential optical methods for assaying ΔF508-CFTR modulation properties of compounds
The optical membrane potential assay utilized voltage-sensitive FRET sensors described by Gonzalez and Tsien (See Gonzalez, J. E. and R. Y. Tsien (1995) “Voltage sensing by fluorescence resonance energy transfer in single cells” Biophys J 69(4): 1272-80, and Gonzalez, J. E. and R. Y. Tsien (1997) “Improved indicators of cell membrane potential that use fluorescence resonance energy transfer” Chem Biol 4(4): 269-77) in combination with instrumentation for measuring fluorescence changes such as the Voltage/Ion Probe Reader (VIPR) (See Gonzalez, J. E., K. Oades, et al. (1999) “Cell-based assays and instrumentation for screening ion-channel targets” Drug Discov Today 4(9): 431-439).
These voltage sensitive assays are based on the change in fluorescence resonant energy transfer (FRET) between the membrane-soluble, voltage-sensitive dye, DiSBAC2(3), and a fluorescent phospholipid, CC2-DMPE, which is attached to the outer leaflet of the plasma membrane and acts as a FRET donor. Changes in membrane potential (Vm) cause the negatively charged DiSBAC2(3) to redistribute across the plasma membrane and the amount of energy transfer from CC2-DMPE changes accordingly. The changes in fluorescence emission were monitored using VIPR™ II, which is an integrated liquid handler and fluorescent detector designed to conduct cell-based screens in 96- or 384-well microtiter plates.
1. Identification of Correction Compounds
To identify small molecules that correct the trafficking defect associated with ΔF508-CFTR; a single-addition HTS assay format was developed. The cells were incubated in serum-free medium for 16 hrs at 37° C. in the presence or absence (negative control) of test compound. As a positive control, cells plated in 384-well plates were incubated for 16 hrs at 27° C. to “temperature-correct” ΔF508-CFTR. The cells were subsequently rinsed 3× with Krebs Ringers solution and loaded with the voltage-sensitive dyes. To activate ΔF508-CFTR, 10 μM forskolin and the CFTR potentiator, genistein (20 μM), were added along with Cl^−-free medium to each well. The addition of Cl^−-free medium promoted Cl^− efflux in response to ΔF508-CFTR activation and the resulting membrane depolarization was optically monitored using the FRET-based voltage-sensor dyes.
NIH3T3 mouse fibroblasts stably expressing ΔF508-CFTR are used for optical measurements of membrane potential. The cells are maintained at 37° C. in 5% CO2 and 90% humidity in Dulbecco's modified Eagle's medium supplemented with 2 mM glutamine, 10% fetal bovine serum, 1×NEAA, β-ME, 1× pen/strep, and 25 mM HEPES in 175 cm^2 culture flasks. For all optical assays, the cells were seeded at 30,000/well in 384-well matrigel-coated plates and cultured for 2 hrs at 37° C. before culturing at 27° C. for 24 hrs for the potentiator assay. For the correction assays, the cells are cultured at 27° C. or 37° C. with and without compounds for 16-24 hours Electrophysiological Assays for assaying ΔF508-CFTR modulation properties of compounds

T1 sequence (P13569 with tags, fused parts or gaps DEL508-508): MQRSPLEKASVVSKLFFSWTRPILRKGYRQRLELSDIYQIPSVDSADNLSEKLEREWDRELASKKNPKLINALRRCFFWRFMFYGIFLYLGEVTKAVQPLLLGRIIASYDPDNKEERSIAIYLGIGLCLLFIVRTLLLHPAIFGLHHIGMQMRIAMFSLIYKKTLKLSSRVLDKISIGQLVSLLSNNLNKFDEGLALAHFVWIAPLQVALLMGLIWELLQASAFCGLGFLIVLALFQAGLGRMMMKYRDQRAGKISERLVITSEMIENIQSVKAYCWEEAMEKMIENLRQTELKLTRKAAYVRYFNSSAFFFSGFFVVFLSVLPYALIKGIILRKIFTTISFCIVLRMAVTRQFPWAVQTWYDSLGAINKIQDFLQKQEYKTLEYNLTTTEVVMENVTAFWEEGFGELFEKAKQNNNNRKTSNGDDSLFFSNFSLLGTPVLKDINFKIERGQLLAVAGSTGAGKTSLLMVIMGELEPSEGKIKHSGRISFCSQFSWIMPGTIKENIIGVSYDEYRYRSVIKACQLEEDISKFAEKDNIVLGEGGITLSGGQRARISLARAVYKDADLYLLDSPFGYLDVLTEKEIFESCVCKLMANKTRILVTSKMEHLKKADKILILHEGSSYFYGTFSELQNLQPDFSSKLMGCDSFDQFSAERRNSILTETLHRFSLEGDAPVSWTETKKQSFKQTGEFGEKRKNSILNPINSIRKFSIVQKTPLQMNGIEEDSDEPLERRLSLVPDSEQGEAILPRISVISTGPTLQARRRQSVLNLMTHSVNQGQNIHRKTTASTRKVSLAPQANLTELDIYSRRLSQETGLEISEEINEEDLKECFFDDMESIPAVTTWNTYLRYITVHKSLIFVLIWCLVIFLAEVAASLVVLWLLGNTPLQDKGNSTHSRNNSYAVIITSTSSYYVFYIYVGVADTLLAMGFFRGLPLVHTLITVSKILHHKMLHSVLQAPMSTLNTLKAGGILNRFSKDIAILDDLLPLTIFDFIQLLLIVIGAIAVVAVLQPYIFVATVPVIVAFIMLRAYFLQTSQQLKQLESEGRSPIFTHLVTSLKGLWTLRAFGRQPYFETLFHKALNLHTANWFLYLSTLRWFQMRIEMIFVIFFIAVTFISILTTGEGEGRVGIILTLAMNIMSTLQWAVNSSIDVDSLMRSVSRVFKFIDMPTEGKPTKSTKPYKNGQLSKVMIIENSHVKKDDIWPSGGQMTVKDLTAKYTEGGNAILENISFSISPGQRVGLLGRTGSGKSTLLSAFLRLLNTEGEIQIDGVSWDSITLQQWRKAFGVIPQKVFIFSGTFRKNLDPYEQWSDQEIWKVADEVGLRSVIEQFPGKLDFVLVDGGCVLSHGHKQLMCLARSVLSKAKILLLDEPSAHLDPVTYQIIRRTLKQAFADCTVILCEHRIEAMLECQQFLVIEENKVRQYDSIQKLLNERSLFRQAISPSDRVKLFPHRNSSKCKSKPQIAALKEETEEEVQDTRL

| SMILES | EC50 [nM] | Emax [%] |
| --- | --- | --- |
| Cc1ccc(NC(=O)C2(c3ccc4c(c3)OCCO4)CC2)nc1-c1c[nH]c(=O)c(C)c1 [Compound 60] | < 2000 | 50 to 100 |
| COc1ccc(-c2cccc(NC(=O)C3(c4ccc5c(c4)OCO5)CC3)n2)cn1 [Compound 94] | 2000 to 5000 | > 100 |
| Cc1ccc(NC(=O)C2(c3ccc4c(c3)OC(F)(F)O4)CC2)nc1-c1ccc(=O)n(CC#N)c1 [Compound 97] | < 2000 | 50 to 100 |
| COc1ccc(-c2nc(NC(=O)C3(c4ccc5c(c4)CCO5)CC3)cc(C)c2C)cn1 [Compound 101] | < 2000 | > 100 |
| COc1ccc(-c2nc(NC(=O)C3(c4ccc5c(c4)OC(F)(F)O5)CC3)cc(C)c2C)c(C)n1 [Compound 103] | < 2000 | > 100 |
| Cc1cc(-c2nc(NC(=O)C3(c4ccc5c(c4)OC(F)(F)O5)CC3)ccc2C)c(=O)n(CCO)c1 [Compound 116] | < 2000 | > 100 |
| COc1ncccc1-c1cc(C)cc(NC(=O)C2(c3ccc4c(c3)OC(F)(F)O4)CC2)n1 [Compound 48] | < 2000 | > 100 |
| COc1ncccc1-c1cccc(NC(=O)C2(c3ccc4c(c3)OCO4)CC2)n1 [Compound 93] | < 2000 | > 100 |
| Cc1cc(NC(=O)C2(c3ccc4c(c3)CCO4)CC2)nc(-c2cc[nH]c(=O)c2)c1C [Compound 109] | < 2000 | 50 to 100 |
| COc1cc(-c2nc(NC(=O)C3(c4ccc5c(c4)OC(F)(F)O5)CC3)cc(C)c2C)ccn1 [Compound 58] | < 2000 | > 100 |
| Cc1cc(NC(=O)C2(c3ccc4c(c3)OC(F)(F)O4)CC2)nc(-c2ccc(=O)[nH]c2C)c1C [Compound 108] | < 2000 | > 100 |
| O=C(Nc1cccc(-c2ccc[nH]c2=O)n1)C1(c2ccc3c(c2)OC(F)(F)O3)CC1 [Compound 51] | < 2000 | > 100 |
| Cc1ccc(NC(=O)C2(c3ccc4c(c3)OC(F)(F)O4)CC2)nc1-c1ccc(=O)n(CC(=O)NC#N)c1 [Compound 74] | 2000 to 5000 | < 50 |
| Cc1cc(NC(=O)C2(c3ccc4c(c3)OCC4)CC2)nc(-c2ccc(=O)[nH]c2)c1 [Compound 98] | < 2000 | 50 to 100 |
| Cc1cc(NC(=O)C2(c3ccc4c(c3)CCO4)CC2)nc(-c2ccc(=O)[nH]c2)c1C [Compound 112] | < 2000 | 50 to 100 |
| COc1ccc(C2(C(=O)Nc3ccc(C)c(-c4ccc(OC)nc4)n3)CC2)cc1 [Compound 2] | < 2000 | 50 to 100 |
| COc1ncccc1-c1nc(NC(=O)C2(c3ccc4c(c3)OC(F)(F)O4)CC2)cc(C)c1C [Compound 56] | < 2000 | > 100 |
| Cc1ccc(NC(=O)C2(c3ccc4c(c3)CCC4)CC2)nc1-c1ccc(=O)[nH]c1 [Compound 115] | < 2000 | 50 to 100 |
| COc1ncc(-c2nc(NC(=O)C3(c4ccc5c(c4)OC(F)(F)O5)CC3)cc(C)c2C)cc1C [Compound 104] | < 2000 | 50 to 100 |
| Cc1ccc(NC(=O)C2(c3ccc4c(c3)CCO4)CC2)nc1-c1c[nH]c(=O)c(C)c1 [Compound 76] | < 2000 | 50 to 100 |
| COc1ccc(C2(C(=O)Nc3ccc(C)c(-c4cc[nH]c(=O)c4)n3)CC2)cc1 [Compound 26] | < 2000 | 50 to 100 |
| Cc1cc(NC(=O)C2(c3ccc4c(c3)CCO4)CC2)nc(-c2cc[nH]c(=O)c2)c1 [Compound 70] | < 2000 | 50 to 100 |
| Cc1cc(NC(=O)C2(c3ccc4c(c3)OC(F)(F)O4)CC2)nc(-c2ccn(CCO)c(=O)c2)c1 [Compound 64] | < 2000 | > 100 |
| COc1ccc(C2(C(=O)Nc3ccc(C)c(-c4ccnc(OC)c4)n3)CC2)cc1 [Compound 45] | < 2000 | > 100 |
| Cc1ccc(NC(=O)C2(c3ccc4c(c3)OC(F)(F)O4)CC2)nc1-c1ccn(CC(=O)O)c(=O)c1 [Compound 47] | < 2000 | < 50 |
| Cc1cc(NC(=O)C2(c3ccc4c(c3)OC(F)(F)O4)CC2)nc(-c2c[nH]c(=O)cc2C)c1 [Compound 113] | < 2000 | > 100 |

Continued, values first:

| EC50 [nM] | Emax [%] | SMILES |
| --- | --- | --- |
| < 2000 | 50 to 100 | O=C(Nc1ccc(Cl)c(-c2ccc(=O)[nH]c2)n1)C1(c2ccc3c(c2)OC(F)(F)O3)CC1 [Compound 22] |
| < 2000 | > 100 | COc1ncc(-c2nc(NC(=O)C3(c4ccc5c(c4)OC(F)(F)O5)CC3)ccc2C)cc1F [Compound 43] |
| < 2000 | 50 to 100 | Cc1cc(=O)[nH]cc1-c1nc(NC(=O)C2(c3ccc4c(c3)OC(F)(F)O4)CC2)ccc1C [Compound 14] |
| < 2000 | > 100 | Cc1cc(NC(=O)C2(c3ccc4c(c3)OC(F)(F)O4)CC2)nc(-c2c[nH]c(=O)c(C)c2)c1 [Compound 107] |
| < 2000 | > 100 | Cc1ccc(NC(=O)C2(c3ccc4c(c3)OC(F)(F)O4)CC2)nc1-c1c[nH]c(=O)c(Cl)c1 [Compound 25] |
| < 2000 | 50 to 100 | COC(=O)Cn1cc(-c2nc(NC(=O)C3(c4ccc5c(c4)OC(F)(F)O5)CC3)ccc2C)cc(C#N)c1=O [Compound 110] |
| < 2000 | 50 to 100 | COc1cc(-c2nc(NC(=O)C3(c4ccc5c(c4)OC(F)(F)O5)CC3)ccc2C)c[nH]c1=O [Compound 21] |
| < 2000 | > 100 | Cc1ccc(NC(=O)C2(c3ccc4c(c3)OC(F)(F)O4)CC2)nc1-c1ccn(CCO)c(=O)c1 [Compound 29] |
| < 2000 | > 100 | Cc1cc(-c2nc(NC(=O)C3(c4ccc5c(c4)OC(F)(F)O5)CC3)ccc2C)cc(=O)[nH]1 [Compound 106] |
| < 2000 | 50 to 100 | Cc1ccc(NC(=O)C2(c3ccc4c(c3)OC(F)(F)O4)CC2)nc1-c1cccc(=O)[nH]1 [Compound 50] |
| < 2000 | > 100 | COc1ncc(-c2nc(NC(=O)C3(c4ccc5c(c4)OC(F)(F)O5)CC3)ccc2C)cc1Cl [Compound 71] |
| < 2000 | > 100 | Cc1cc(NC(=O)C2(c3ccc4c(c3)OC(F)(F)O4)CC2)nc(-c2c[nH]c(=O)c(C)c2)c1C [Compound 111] |
| < 2000 | > 100 | COc1cc(C)c(-c2nc(NC(=O)C3(c4ccc5c(c4)OC(F)(F)O5)CC3)ccc2C)cn1 [Compound 18] |
| 2000 to 5000 | 50 to 100 | Cc1ccc(NC(=O)C2(c3ccc4c(c3)OC(F)(F)O4)CC2)nc1-c1c[nH]c(=O)c(C(N)=O)c1 [Compound 34] |
| < 2000 | 50 to 100 | Cc1cc(NC(=O)C2(c3ccc4c(c3)OC(F)(F)O4)CC2)nc(-c2cc(C)c[nH]c2=O)c1 [Compound 92] |
| < 2000 | > 100 | COc1cc(-c2nc(NC(=O)C3(c4ccc5c(c4)OC(F)(F)O5)CC3)ccc2C)cnc1OC [Compound 72] |
| 2000 to 5000 | 50 to 100 | CNC(=O)c1cc(-c2nc(NC(=O)C3(c4ccc5c(c4)OC(F)(F)O5)CC3)ccc2C)c[nH]c1=O [Compound 32] |
| < 2000 | 50 to 100 | Cc1ccc(NC(=O)C2(c3ccc4c(c3)OC(F)(F)O4)CC2)nc1-c1ccc(=O)n(C)c1 [Compound 52] |
| < 2000 | > 100 | Cc1ccc(NC(=O)C2(c3ccc4c(c3)OC(F)(F)O4)CC2)nc1-c1cc(F)c[nH]c1=O [Compound 82] |
| < 2000 | 50 to 100 | Cc1c[nH]c(=O)c(-c2nc(NC(=O)C3(c4ccc5c(c4)OC(F)(F)O5)CC3)ccc2C)c1 [Compound 31] |
| < 2000 | > 100 | COc1ncc(-c2nc(NC(=O)C3(c4ccc5c(c4)OC(F)(F)O5)CC3)ccc2C)cc1NC(C)=O [Compound 33] |
| 2000 to 5000 | 50 to 100 | Cc1ccc(NC(=O)C2(c3ccc4c(c3)OC(F)(F)O4)CC2)nc1-c1c[nH]c(=O)c(C(=O)O)c1 [Compound 23] |
| < 2000 | > 100 | Cc1cc(NC(=O)C2(c3ccc4c(c3)OC(F)(F)O4)CC2)nc(-c2ccc[nH]c2=O)c1C [Compound 66] |
